Laboratory results reported in PubChem BioAssay (NCI).
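Step 1: Grow cells in 96-well plates. Step 2: Expose to compound for 48 hours at 5 concentrations. Step 3: Interpolate endpoints linearly; if unreached, use highest concentration. At the GI50, growth is halved. At the TGI there is no net growth.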

Assays:
Assay in all cases: inhibition of tumour cell growth, NCI panel, 48 h
EKVX NSCLC = system: EKVX NSCLC
HOP-92 NSCLC = system: HOP-92 NSCLC
CCRF-CEM leukemia = system: CCRF-CEM leukemia
OVCAR-5 ovarian = system: OVCAR-5 ovarian
MALME-3M melanoma = system: MALME-3M melanoma
HT29 colon = system: HT29 colon
A549 NSCLC = system: A549 NSCLC
OVCAR-3 ovarian = system: OVCAR-3 ovarian
NCI-H23 lung = system: NCI-H23 lung
T-47D breast = system: T-47D breast
ACHN renal = system: ACHN renal
RXF 393 renal = system: RXF 393 renal
SR leukemia = system: SR leukemia
COLO 205 colon = system: COLO 205 colon
SNB-19 CNS = system: SNB-19 CNS
NCI-H522 lung = system: NCI-H522 lung
K-562 leukemia = system: K-562 leukemia
SF-295 CNS = system: SF-295 CNS
SK-MEL-28 melanoma = system: SK-MEL-28 melanoma
A498 renal = system: A498 renal
MDA-MB-231 breast = system: MDA-MB-231 breast
SF-268 CNS = system: SF-268 CNS
SK-OV-3 ovarian = system: SK-OV-3 ovarian
KM12 colon = system: KM12 colon
MDA-MB-468 breast = system: MDA-MB-468 breast
RPMI-8226 leukemia = system: RPMI-8226 leukemia
NCI-H226 lung = system: NCI-H226 lung
SNB-75 CNS = system: SNB-75 CNS
SF-539 CNS = system: SF-539 CNS
SK-MEL-5 melanoma = system: SK-MEL-5 melanoma
SK-MEL-2 melanoma = system: SK-MEL-2 melanoma
MDA-MB-435 = system: MDA-MB-435
IGROV1 ovarian = system: IGROV1 ovarian
HCT-15 colon = system: HCT-15 colon
NCI-H460 lung = system: NCI-H460 lung
OVCAR-4 ovarian = system: OVCAR-4 ovarian
SW-620 colon = system: SW-620 colon
LOX IMVI melanoma = system: LOX IMVI melanoma
M14 melanoma = system: M14 melanoma
HL-60(TB) leukemia = system: HL-60(TB) leukemia
HCT-116 colon = system: HCT-116 colon
U251 CNS = system: U251 CNS
UACC-62 melanoma = system: UACC-62 melanoma
PC-3 prostate = system: PC-3 prostate
HOP-62 NSCLC = system: HOP-62 NSCLC
MCF7 breast = system: MCF7 breast
OVCAR-8 ovarian = system: OVCAR-8 ovarian
HS 578T breast = system: HS 578T breast
UACC-257 melanoma = system: UACC-257 melanoma
NCI/ADR-RES ovarian = system: NCI/ADR-RES ovarian
UO-31 renal = system: UO-31 renal
786-0 renal = system: 786-0 renal
MOLT-4 leukemia = system: MOLT-4 leukemia
SN12C renal = system: SN12C renal
DU-145 prostate = system: DU-145 prostate
CAKI-1 renal = system: CAKI-1 renal
TK-10 renal = system: TK-10 renal
BT-549 breast = system: BT-549 breast
HCC-2998 colon = system: HCC-2998 colon

Work on `O=C(NO)c1ccc(Cn2ccc3c(NCc4ccccc4)ncnc32)cc1` yielded a GI50 (EKVX NSCLC) of 5.93 µM, a TGI (EKVX NSCLC) of 19.8 µM and a GI50 (HOP-92 NSCLC) of 4.07 µM. The TGI (HOP-92 NSCLC) was 18.5 µM, the GI50 (CCRF-CEM leukemia) was 3.72 µM and the TGI (CCRF-CEM leukemia) was 58.7 µM. The GI50 (OVCAR-5 ovarian) was 2.57 µM, the TGI (OVCAR-5 ovarian) was 10.1 µM and the GI50 (MALME-3M melanoma) was 1.99 µM. It also gave a TGI (MALME-3M melanoma) of 9.52 µM, a GI50 (HT29 colon) of 2.48 µM and a TGI (HT29 colon) of 6.93 µM. It also gave a GI50 (A549 NSCLC) of 4.34 µM, a TGI (A549 NSCLC) of 20.6 µM and a GI50 (OVCAR-3 ovarian) of 2.17 µM. It also gave a TGI (OVCAR-3 ovarian) of 5.23 µM, a GI50 (NCI-H23 lung) of 4.8 µM and a TGI (NCI-H23 lung) of 17.2 µM. The GI50 (T-47D breast) was 3.13 µM, the TGI (T-47D breast) was 21.8 µM and the GI50 (ACHN renal) was 4.07 µM. The TGI (ACHN renal) was 15.2 µM, the GI50 (RXF 393 renal) was 1.94 µM and the TGI (RXF 393 renal) was 5.63 µM. For the same molecule, the GI50 (SR leukemia) was 0.937 µM, the TGI (SR leukemia) was > 103 µM and the GI50 (COLO 205 colon) was 2.43 µM. For the same molecule, the TGI (COLO 205 colon) was 6.24 µM, the GI50 (SNB-19 CNS) was 5.81 µM and the TGI (SNB-19 CNS) was 20.6 µM. It also gave a GI50 (NCI-H522 lung) of 1.93 µM, a TGI (NCI-H522 lung) of 7.69 µM and a GI50 (K-562 leukemia) of 2.03 µM. For the same molecule, the TGI (K-562 leukemia) was > 103 µM, the GI50 (SF-295 CNS) was 3.49 µM and the TGI (SF-295 CNS) was 12.7 µM. For the same molecule, the GI50 (SK-MEL-28 melanoma) was 3.77 µM, the TGI (SK-MEL-28 melanoma) was 17.5 µM and the GI50 (A498 renal) was 2.28 µM. The TGI (A498 renal) was 10.2 µM, the GI50 (MDA-MB-231 breast) was 5.2 µM and the TGI (MDA-MB-231 breast) was 22 µM. It also gave a GI50 (SF-268 CNS) of 8.8 µM, a TGI (SF-268 CNS) of 36.5 µM and a GI50 (SK-OV-3 ovarian) of 3.27 µM. The TGI (SK-OV-3 ovarian) was 15.6 µM, the GI50 (KM12 colon) was 3.19 µM and the TGI (KM12 colon) was 12.7 µM. The GI50 (MDA-MB-468 breast) was 2.12 µM, the TGI (MDA-MB-468 breast) was 6.05 µM and the GI50 (RPMI-8226 leukemia) was 2.9 µM. The TGI (RPMI-8226 leukemia) was > 103 µM, the GI50 (NCI-H226 lung) was 4.17 µM and the TGI (NCI-H226 lung) was 25.5 µM. The GI50 (SNB-75 CNS) was 1.25 µM, the TGI (SNB-75 CNS) was 5.36 µM and the GI50 (SF-539 CNS) was 2.64 µM. It also gave a TGI (SF-539 CNS) of 9.8 µM, a GI50 (SK-MEL-5 melanoma) of 1.9 µM and a TGI (SK-MEL-5 melanoma) of 6.37 µM. The GI50 (SK-MEL-2 melanoma) was 4.58 µM, the TGI (SK-MEL-2 melanoma) was 18.7 µM and the GI50 (MDA-MB-435) was 0.562 µM. For the same molecule, the TGI (MDA-MB-435) was 2.26 µM, the GI50 (IGROV1 ovarian) was 4.14 µM and the TGI (IGROV1 ovarian) was 14.7 µM. It also gave a GI50 (HCT-15 colon) of 3.09 µM, a TGI (HCT-15 colon) of 15.2 µM and a GI50 (NCI-H460 lung) of 3.12 µM. For the same molecule, the TGI (NCI-H460 lung) was 19.1 µM, the GI50 (OVCAR-4 ovarian) was 12.2 µM and the TGI (OVCAR-4 ovarian) was 96.2 µM. The GI50 (SW-620 colon) was 2.22 µM, the TGI (SW-620 colon) was 6.49 µM and the GI50 (LOX IMVI melanoma) was 4.2 µM. It also gave a TGI (LOX IMVI melanoma) of 16.1 µM, a GI50 (M14 melanoma) of 4.12 µM and a TGI (M14 melanoma) of 20.2 µM. The GI50 (HL-60(TB) leukemia) was 2.34 µM, the TGI (HL-60(TB) leukemia) was 6.38 µM and the GI50 (HCT-116 colon) was 3.4 µM. For the same molecule, the TGI (HCT-116 colon) was 24.9 µM, the GI50 (U251 CNS) was 3.21 µM and the TGI (U251 CNS) was 15.2 µM. The GI50 (UACC-62 melanoma) was 2.39 µM, the TGI (UACC-62 melanoma) was 12.2 µM and the GI50 (PC-3 prostate) was 4.35 µM. The TGI (PC-3 prostate) was 97.9 µM, the GI50 (HOP-62 NSCLC) was 4.13 µM and the TGI (HOP-62 NSCLC) was 20.9 µM. It also gave a GI50 (MCF7 breast) of 3.25 µM, a TGI (MCF7 breast) of 22.8 µM and a GI50 (OVCAR-8 ovarian) of 3.1 µM. It also gave a TGI (OVCAR-8 ovarian) of 14.4 µM, a GI50 (HS 578T breast) of 2.27 µM and a TGI (HS 578T breast) of 7.62 µM. It also gave a GI50 (UACC-257 melanoma) of 2.39 µM, a TGI (UACC-257 melanoma) of 15.1 µM and a GI50 (NCI/ADR-RES ovarian) of 2.6 µM. It also gave a TGI (NCI/ADR-RES ovarian) of 12.7 µM, a GI50 (UO-31 renal) of 3.93 µM and a TGI (UO-31 renal) of 16.6 µM. The GI50 (786-0 renal) was 8.63 µM, the TGI (786-0 renal) was 26.6 µM and the GI50 (MOLT-4 leukemia) was 2.41 µM. For the same molecule, the TGI (MOLT-4 leukemia) was 10.3 µM, the GI50 (SN12C renal) was 4.41 µM and the TGI (SN12C renal) was 17.3 µM. The GI50 (DU-145 prostate) was 4.06 µM, the TGI (DU-145 prostate) was > 103 µM and the GI50 (CAKI-1 renal) was 3.21 µM. It also gave a TGI (CAKI-1 renal) of 15.2 µM, a GI50 (TK-10 renal) of 3.2 µM and a TGI (TK-10 renal) of 17.8 µM. It also gave a GI50 (BT-549 breast) of 13.7 µM, a TGI (BT-549 breast) of 31.7 µM and a GI50 (HCC-2998 colon) of 4.5 µM. The TGI (HCC-2998 colon) was 17.1 µM.
